According to patent publication US20250281512A1, “BUFFERING AGENT-CONTAINING COMPOSITIONS AND METHODS OF USING SAME” (KNOW BIO, LLC, priority 2022, published 2025):

Experiment: Effect of buffer concentration on osmolality
Type: physicochemical
Experimental: The effect of buffer concentration on osmolality was measured for HEPES and potassium phosphate buffer systems and plotted in FIG. 8A. With HEPES, a higher buffer concentration can be achieved with a lower osmolality (slope 1.37 mOsmol/Kg per mMoles/L HEPES), as compared to phosphate buffers (slope 2.21 mOsmol/Kg per mMoles/L phosphate).

Compound | slope of osmolality against buffer concentration [mOsmol/Kg per mMoles/L]
phosphate | 2.21
O=S(=O)(O)CCN1CCN(CCO)CC1 [HEPES, 4-(2-hydroxyethyl)-1-piperazineethanesulfonic acid] | 1.37
